Test results taken from publication PMC7036909, “Discovery of Selective SIRT2 Inhibitors as Therapeutic Agents in B-Cell Lymphoma and Other Malignancies” (Molecules, 2020).
Read-outs that look alike come from different tables or passages of the source.

What was measured:
[1] = tested on: OCI-Ly8-LAM-53 (OCI, DLBCL) cells; assay: Cell viability (CellTiter-Glo), OCI; type: cell-based; conditions: 72 h, cellular ATP; read-out: OCI LC50
Protocol: (§1) With selective SIRT2 inhibitors in hand, we proceeded to evaluate cytotoxicity of our compounds in Daudi, Raji (Burkitt lymphoma) and OCI-Ly8-LAM-53 (OCI, a representative of several Diffuse Large B-Cell Lymphoma lines; DLBCL) cell lines. Briefly, cells were plated in 96-well plates and treated with inhibitors at desired concentrations for 72 h. Cellular viability was determined by measuring the amount of cellular ATP using CellTiter-Glo assay kit (Promega) and normalized against DMSO-treated controls. […] Selected inhibitors were further evaluated in an expanded panel of cancer cell lines including breast cancer (MCF-7 and MDA-MB231), prostate cancer (PC-3) and glioblastoma multiforme (U-251). […] However, the trend in potency as a function of the structure is consistent with the results obtained against lymphoma cell lines. […] . Cell lines were obtained from ATCC (Manassas, VA, USA) and were grown under standard conditions as recommended. For viability assays, 3000 cells per well were dispensed into 96-well plates and treated with test compounds (final DMSO concentration 0.25%). Cells were incubated with test compounds (or DMSO controls) for 72 h or 5 days as noted at 37 °C in 5% CO2 and viability was determined using the CellTiter-Glo Assay (Promega Corp.) according to manufacturer’s instructions.

SIRT1 [2] = target: T1, SIRT1 (Homo sapiens, UniProt Q96EB6); parameters: purchased Cayman Chemical; conditions: cited from earlier work
T1 sequence (Q96EB6 1-747): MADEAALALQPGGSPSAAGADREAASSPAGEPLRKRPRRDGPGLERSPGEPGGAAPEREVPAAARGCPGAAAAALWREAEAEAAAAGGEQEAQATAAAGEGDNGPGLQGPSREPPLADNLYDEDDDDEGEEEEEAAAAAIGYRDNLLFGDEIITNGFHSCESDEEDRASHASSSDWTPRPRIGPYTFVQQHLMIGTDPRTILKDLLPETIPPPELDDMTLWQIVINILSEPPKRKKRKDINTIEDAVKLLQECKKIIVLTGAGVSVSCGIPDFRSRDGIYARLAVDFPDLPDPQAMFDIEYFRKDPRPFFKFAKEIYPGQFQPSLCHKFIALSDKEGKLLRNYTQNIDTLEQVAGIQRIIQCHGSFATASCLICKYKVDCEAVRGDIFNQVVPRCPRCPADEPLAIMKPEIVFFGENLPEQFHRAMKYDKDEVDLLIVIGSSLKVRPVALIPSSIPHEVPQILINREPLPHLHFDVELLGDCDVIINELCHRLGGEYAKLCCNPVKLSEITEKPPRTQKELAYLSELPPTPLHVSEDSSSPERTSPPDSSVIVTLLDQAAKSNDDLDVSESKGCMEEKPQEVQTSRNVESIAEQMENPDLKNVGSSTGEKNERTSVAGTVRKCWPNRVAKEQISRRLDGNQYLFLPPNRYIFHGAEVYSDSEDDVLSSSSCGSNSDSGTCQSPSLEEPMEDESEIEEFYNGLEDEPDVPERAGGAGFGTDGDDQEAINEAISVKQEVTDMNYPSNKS

SIRT2 [3] = target: T2, SIRT2 (Homo sapiens, UniProt Q8IXJ6); parameters: purchased Cayman Chemical; conditions: abstract and Figure 1, authors' previous work; cited from earlier work
T2 sequence (Q8IXJ6 1-389): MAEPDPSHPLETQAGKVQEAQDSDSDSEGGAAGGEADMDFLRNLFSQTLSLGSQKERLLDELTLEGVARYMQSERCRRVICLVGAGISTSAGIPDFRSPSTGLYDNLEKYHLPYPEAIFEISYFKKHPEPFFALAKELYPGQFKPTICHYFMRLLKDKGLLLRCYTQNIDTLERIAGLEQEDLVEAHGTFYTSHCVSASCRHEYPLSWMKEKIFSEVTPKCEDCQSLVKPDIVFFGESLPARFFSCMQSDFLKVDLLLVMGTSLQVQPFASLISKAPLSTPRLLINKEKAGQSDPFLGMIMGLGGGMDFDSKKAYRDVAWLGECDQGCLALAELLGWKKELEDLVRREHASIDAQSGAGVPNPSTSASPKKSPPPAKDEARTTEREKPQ

SIRT3 [4] = target: T3, SIRT3 (Homo sapiens, UniProt Q9NTG7); parameters: purchased Cayman Chemical; conditions: Figure 1, authors' previous work; cited from earlier work
T3 sequence (Q9NTG7 1-399): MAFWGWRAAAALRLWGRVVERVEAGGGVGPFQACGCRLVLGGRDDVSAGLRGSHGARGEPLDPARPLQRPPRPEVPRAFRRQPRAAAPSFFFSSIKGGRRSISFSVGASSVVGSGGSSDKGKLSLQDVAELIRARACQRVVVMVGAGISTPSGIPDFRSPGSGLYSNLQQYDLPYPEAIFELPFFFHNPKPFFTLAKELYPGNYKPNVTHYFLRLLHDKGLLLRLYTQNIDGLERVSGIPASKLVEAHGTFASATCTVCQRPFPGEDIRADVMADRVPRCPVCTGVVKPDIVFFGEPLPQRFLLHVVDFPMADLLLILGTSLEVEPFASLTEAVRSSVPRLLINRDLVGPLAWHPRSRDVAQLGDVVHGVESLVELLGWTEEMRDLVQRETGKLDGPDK

[5] = tested on: Daudi (Burkitt lymphoma) cells; assay: Cell viability (CellTiter-Glo), Daudi; type: cell-based; conditions: Homo sapiens, 72 h, cellular ATP, read-out: Daudi LC50
Protocol: as §1

[6] = tested on: Raji (Burkitt lymphoma) cells; assay: Cell viability (CellTiter-Glo), Raji; type: cell-based; conditions: Homo sapiens, 72 h, cellular ATP, read-out: Raji LC50
Protocol: as §1

[7] = tested on: MCF-7 breast cancer cells; assay: Cell viability (CellTiter-Glo), MCF-7; type: cell-based; conditions: Homo sapiens, MCF7; cellular ATP; read-out: MCF7 LC50
Protocol: as §1

[8] = tested on: MDA-MB231 breast cancer cells; assay: Cell viability (CellTiter-Glo), MDA-MB231; type: cell-based; conditions: Homo sapiens, MDA-MB-231; cellular ATP; read-out: MDA-MB231 LC50
Protocol: as §1

[9] = tested on: PC-3 prostate cancer cells; assay: Cell viability (CellTiter-Glo), PC-3; type: cell-based; conditions: cellular ATP; read-out: PC3 LC50
Protocol: as §1

[10] = tested on: U-251 glioblastoma multiforme cells; assay: Cell viability (CellTiter-Glo), U-251; type: cell-based; conditions: Homo sapiens, cellular ATP, read-out: U251 LC50
Protocol: as §1

SIRT1 [11] = target: T1, SIRT1; assay: SIRT-Glo enzyme inhibition assay, SIRT1; conditions: for inhibition at 50 µM: read-out: SIRT1 percentage inhibition at 50 µM compound, 50 µM compound; for selectivity for SIRT2 over SIRT1: SIRT2 versus SIRT1
Protocol: (§2) SIRT1, SIRT2, and SIRT3 were purchased from Cayman Chemical. Enzyme inhibition assays were performed in 96-well black plates using the SIRT-Glo Assay (Promega Corp.) according to the manufacturer’s instructions. Compounds were dissolved in 100% DMSO and to make 5- or 10-mM stock solutions. For initial enzyme inhibition tests, 50 µM of inhibitory concentration was used. […] IC50 values were determined in triplicate and reported values are averages of two independent experiments.

SIRT2 [12] = target: T2, SIRT2; assay: SIRT-Glo enzyme inhibition assay, SIRT2; conditions: for IC50: SIRT2 IC50; for inhibition at 50 µM: read-out: SIRT2 percentage inhibition at 50 µM compound, 50 µM compound
Protocol: as §2

SIRT3 [13] = target: T3, SIRT3; assay: SIRT-Glo enzyme inhibition assay, SIRT3; conditions: for inhibition at 50 µM: read-out: SIRT3 percentage inhibition at 50 µM compound, 50 µM compound; for selectivity for SIRT2 over SIRT3: SIRT2 versus SIRT3
Protocol: as §2

[14] = tested on: α-tubulin acetylation in NCI-H460 cells; assay: α-tubulin acetylation by western blot; type: cell-based; conditions: NCI-H460, 0, 5 and 10 µM, 18 h, versus vehicle
Protocol: To ascertain SIRT2 inhibitory activity of our newly synthesized compounds in a cellular context, we examined acetylation level of α-tubulin, a known SIRT2 substrate. Non-small cell lung cancer cell line NCI-H460 was treated with compound 55 at 0, 5, and 10 µM for 18 h. Cells were harvested, lysed and α-tubulin acetylation was analyzed by western blot (Figure 2).
Figure 2 Determination of α-tubulin acetylation in NCI-H460 cells by western blot following 18 h treatment with 55. GAPDH used as loading control.

OCI DLBCL cells = assay: Annexin V staining assay
Protocol: (§3) OCI DLBCL cells were treated with 56 for 24 h. Cells were lysed and analyzed by western blot assay for cleaved poly-ADP-ribose polymerase (PARP), a well-accepted apoptosis marker [42] (Abcam, Cambridge, UK).

[15] = tested on: cleaved PARP in OCI DLBCL cells; assay: PARP cleavage by western blot; conditions: 24 h
Protocol: as §3

Row | Structure (SMILES) | CC50 [1] | CC50 [5] | CC50 [6] | CC50 [7] | CC50 [8] | CC50 [9] | CC50 [10] | inhibition at 50 µM (SIRT1 [11]) | IC50 (SIRT2 [12]) | inhibition at 50 µM (SIRT2 [12]) | inhibition at 50 µM (SIRT3 [13]) | also measured
1 | N#C/C(=C\c1ccc(-c2cc(Cl)ccc2Cl)o1)C(=O)Nc1cccc2ncccc12 [AGK2, reference compound] | 73.2 µM | – | – | – | – | – | – | – | – | – | – | IC50 (SIRT1 [2]): > 50 µM
2 | COc1cc2ccccc2c(Cc2c(-c3ccc(C)cc3)[nH][nH]c2=O)c1O [Compound 2] | – | – | – | – | – | – | – | – | – | – | – | IC50 (SIRT1 [2]; abstract and Figure 1, authors' previous work): 37 µM; IC50 (SIRT2 [3]): > 200 µM; IC50 (SIRT3 [4]): > 200 µM
3 | O=C(NCCO)C(Cc1c(O)ccc2cc(Br)ccc12)C(=O)c1ccc(Br)cc1 (stereo not shown) [Compound 48, 2-[(6-Bromo-2-hydroxynaphthalen-1-yl)methyl]-3-(4-bromophenyl)-N-(2-hydroxyethyl)-3-oxopropanamide] | 5 µM | 10.5 µM | 10 µM | 11.8 µM | 14.7 µM | 11.8 µM | 15.8 µM | 18% | 0.52 µM | 96% | 29% | –
4 | O=C(NCCO)C(Cc1c(O)ccc2cc(Br)ccc12)C(=O)c1ccc(C(F)(F)F)cc1 (stereo not shown) [Compound 49] | 13.1 µM | 12 µM | 16.5 µM | 20.2 µM | 23.5 µM | 18.4 µM | 15.7 µM | 15% | 0.27 µM | 99% | 27% | selectivity for SIRT2 over SIRT1 (SIRT1 [11]): > 400 fold; selectivity for SIRT2 over SIRT3 (SIRT3 [13]): > 800 fold
5 | NC(=O)CCNC(=O)C(Cc1c(O)ccc2cc(Br)ccc12)C(=O)c1ccc(Br)cc1 (stereo not shown) [Compound 51, 2-[(6-Bromo-2-hydroxynaphthalen-1-yl)methyl]-3-(4-bromophenyl)-N-(2-carbamoylethyl)-3-oxopropanamide] | 10.2 µM | 19.2 µM | 16.7 µM | – | – | – | 25.9 µM | 20% | 0.58 µM | 98% | 14% | –
6 | NC(=O)CCNC(=O)C(Cc1c(O)ccc2cc(Br)ccc12)C(=O)c1ccc(C(F)(F)F)cc1 (stereo not shown) [Compound 52, 2-[(6-Bromo-2-hydroxynaphthalen-1-yl)methyl]-N-(2-carbamoylethyl)-3-oxo-3-[4-(trifluoromethyl)phenyl]-propenamide] | 25.5 µM | 28.2 µM | 19.4 µM | – | – | – | – | 0% | 0.65 µM | 93% | 21% | –
7 | CNC(=O)CCNC(=O)C(Cc1c(O)ccc2cc(Br)ccc12)C(=O)c1ccc(Cl)cc1 (stereo not shown) [Compound 54, 2-[(6-Bromo-2-hydroxynaphthalen-1-yl)methyl]-3-(4-chlorophenyl)-N-[2-(methylcarbamoyl)ethyl]-3-oxo-propanamide] | 11.2 µM | 15.8 µM | 18.5 µM | 18 µM | 23.8 µM | 16.5 µM | 17.3 µM | 12% | 0.59 µM | 99% | 6% | –
8 | CNC(=O)CCNC(=O)C(Cc1c(O)ccc2cc(Br)ccc12)C(=O)c1ccc(C(F)(F)F)cc1 (stereo not shown) [Compound 55, 2-[(6-Bromo-2-hydroxynaphthalen-1-yl)methyl]-N-[2-(methylcarbamoyl)ethyl]-3-oxo-3-[4-(trifluoromethyl)-phenyl]propenamide] | 24.9 µM | 11.9 µM | 11.9 µM | 21.6 µM | 22.8 µM | 17.2 µM | 21.1 µM | – | 0.25 µM | 100% | < 25% | α-tubulin acetylation [14]: dose-dependent increase in tubulin acetylation; SIRT3 percentage inhibition at 50 µM compound (SIRT3 [13]): 20%
9 | CNC(=O)C(Cc1c(O)ccc2cc(Br)ccc12)C(=O)c1ccc(Br)cc1 (stereo not shown) [Compound 56, 2-[(6-Bromo-2-hydroxynaphthalen-1-yl)methyl]-3-(4-bromophenyl)-N-methyl-3-oxopropanamide] | 5.7 µM | 7.1 µM | 9.1 µM | – | – | – | – | – | 0.78 µM | 95% | < 25% | Q1 (necrotic cell death) cell population (OCI DLBCL cells; 10 µM): 4.6%; Q2 (apoptotic cells) cell population (OCI DLBCL cells; 10 µM): 47.2%; Q3 cell population (OCI DLBCL cells; 10 µM): 39.8%; Q4 cell population (OCI DLBCL cells; 10 µM): 8.4%; Q1 (necrotic cell death) cell population (OCI DLBCL cells; 25 µM): 3.8%; Q2 (apoptotic cells) cell population (OCI DLBCL cells; 25 µM): 75.8%; Q3 cell population (OCI DLBCL cells; 25 µM): 13.5%; Q4 cell population (OCI DLBCL cells; 25 µM): 6.9%; PARP cleavage [15]: dose-dependent PARP cleavage; selectivity for SIRT2 over SIRT1 (SIRT1 [11]): > 400 fold; SIRT3 percentage inhibition at 50 µM compound (SIRT3 [13]): 22%; selectivity for SIRT2 over SIRT3 (SIRT3 [13]): > 800 fold
